# Measurements as given in ChEMBL document CHEMBL3112549 (Bioorg Med Chem Lett, 2014).
# Target: Vascular endothelial growth factor receptor 2 (Homo sapiens, UniProt P35968)
# Test: Inhibition of VEGFR-2 tyrosine kinase (unknown origin) after 30 mins by HTRF method
# Sequence of Vascular endothelial growth factor receptor 2 (P35968 whole entry): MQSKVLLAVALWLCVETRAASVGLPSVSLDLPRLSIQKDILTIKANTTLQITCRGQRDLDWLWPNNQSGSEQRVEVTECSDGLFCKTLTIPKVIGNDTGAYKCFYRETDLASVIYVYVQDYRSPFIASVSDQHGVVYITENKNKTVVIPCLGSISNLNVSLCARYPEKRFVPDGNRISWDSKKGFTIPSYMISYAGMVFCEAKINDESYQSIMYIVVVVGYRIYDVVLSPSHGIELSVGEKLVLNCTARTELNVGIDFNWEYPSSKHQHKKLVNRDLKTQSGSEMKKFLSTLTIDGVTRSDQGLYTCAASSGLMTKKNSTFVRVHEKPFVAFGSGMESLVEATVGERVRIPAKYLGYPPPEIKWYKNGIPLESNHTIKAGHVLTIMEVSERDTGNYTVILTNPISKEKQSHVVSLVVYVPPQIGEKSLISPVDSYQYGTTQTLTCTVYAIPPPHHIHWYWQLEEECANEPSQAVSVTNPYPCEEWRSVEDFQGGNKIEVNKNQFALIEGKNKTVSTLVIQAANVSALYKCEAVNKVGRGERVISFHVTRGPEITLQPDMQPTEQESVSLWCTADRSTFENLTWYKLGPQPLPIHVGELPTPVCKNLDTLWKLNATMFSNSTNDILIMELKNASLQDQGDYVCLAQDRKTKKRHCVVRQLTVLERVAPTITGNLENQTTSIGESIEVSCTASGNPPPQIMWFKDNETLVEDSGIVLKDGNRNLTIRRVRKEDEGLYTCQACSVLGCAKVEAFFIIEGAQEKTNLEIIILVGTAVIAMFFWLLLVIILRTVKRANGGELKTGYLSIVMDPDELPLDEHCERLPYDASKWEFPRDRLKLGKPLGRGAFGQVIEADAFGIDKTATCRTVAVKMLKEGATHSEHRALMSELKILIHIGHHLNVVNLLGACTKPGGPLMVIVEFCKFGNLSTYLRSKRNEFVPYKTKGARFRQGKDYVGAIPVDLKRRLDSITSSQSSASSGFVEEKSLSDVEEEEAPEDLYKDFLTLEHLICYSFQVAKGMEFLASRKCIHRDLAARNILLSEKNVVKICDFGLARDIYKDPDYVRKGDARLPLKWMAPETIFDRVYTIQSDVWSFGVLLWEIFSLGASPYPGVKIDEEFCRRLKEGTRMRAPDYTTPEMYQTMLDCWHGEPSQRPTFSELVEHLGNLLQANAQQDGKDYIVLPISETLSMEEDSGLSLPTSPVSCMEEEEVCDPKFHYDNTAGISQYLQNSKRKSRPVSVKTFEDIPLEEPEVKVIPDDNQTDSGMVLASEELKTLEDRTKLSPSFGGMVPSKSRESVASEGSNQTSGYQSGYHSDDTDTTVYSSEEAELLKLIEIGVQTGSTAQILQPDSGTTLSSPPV
row,Compound,IC50 [nM]
1,CSc1ccc(Nc2nccc(N(C)c3ccc4c(C)n(C)nc4c3)n2)cc1,51
2,Cc1cc(C)cc(Nc2nccc(N(C)c3ccc4c(C)n(C)nc4c3)n2)c1,21
3,Cc1c2ccc(N(C)c3ccnc(Nc4cccc(F)c4)n3)cc2nn1C,78
4,Cc1c2ccc(N(C)c3ccnc(Nc4cccc(Cl)c4)n3)cc2nn1C,25
5,Cc1cc(C)cc(Nc2nccc(N(C)c3ccc4cn(C)nc4c3)n2)c1,28
6,Cc1cccc(Nc2nccc(N(C)c3ccc4c(C)n(C)nc4c3)n2)c1,42
7,Cc1c2ccc(N(C)c3ccnc(Nc4ccc(OC(F)(F)F)cc4)n3)cc2nn1C,72
8,CN(c1ccc2cn(C)nc2c1)c1ccnc(Nc2ccc(OC(F)(F)F)cc2)n1,12

# The remaining molecules from weak to strong by IC50, led by results:
row,IC50 [nM],Compound
1,108,COc1cccc(Nc2nccc(N(C)c3ccc4cn(C)nc4c3)n2)c1
2,93,CN(c1ccc2cn(C)nc2c1)c1ccnc(Nc2cccc(F)c2)n1
3,72,CN(c1ccc2cn(C)nc2c1)c1ccnc(Nc2cccc(Cl)c2)n1
4,64,Cc1c2ccc(N(C)c3ccnc(Nc4cccc(Br)c4)n3)cc2nn1C
5,38,COc1cccc(Nc2nccc(N(C)c3ccc4c(C)n(C)nc4c3)n2)c1

# Target: Mast/stem cell growth factor receptor Kit (Homo sapiens, UniProt P10721)
# Test: Inhibition of c-KIT tyrosine kinase (unknown origin) after 30 mins by HTRF method
# Sequence of Mast/stem cell growth factor receptor Kit (P10721 whole entry): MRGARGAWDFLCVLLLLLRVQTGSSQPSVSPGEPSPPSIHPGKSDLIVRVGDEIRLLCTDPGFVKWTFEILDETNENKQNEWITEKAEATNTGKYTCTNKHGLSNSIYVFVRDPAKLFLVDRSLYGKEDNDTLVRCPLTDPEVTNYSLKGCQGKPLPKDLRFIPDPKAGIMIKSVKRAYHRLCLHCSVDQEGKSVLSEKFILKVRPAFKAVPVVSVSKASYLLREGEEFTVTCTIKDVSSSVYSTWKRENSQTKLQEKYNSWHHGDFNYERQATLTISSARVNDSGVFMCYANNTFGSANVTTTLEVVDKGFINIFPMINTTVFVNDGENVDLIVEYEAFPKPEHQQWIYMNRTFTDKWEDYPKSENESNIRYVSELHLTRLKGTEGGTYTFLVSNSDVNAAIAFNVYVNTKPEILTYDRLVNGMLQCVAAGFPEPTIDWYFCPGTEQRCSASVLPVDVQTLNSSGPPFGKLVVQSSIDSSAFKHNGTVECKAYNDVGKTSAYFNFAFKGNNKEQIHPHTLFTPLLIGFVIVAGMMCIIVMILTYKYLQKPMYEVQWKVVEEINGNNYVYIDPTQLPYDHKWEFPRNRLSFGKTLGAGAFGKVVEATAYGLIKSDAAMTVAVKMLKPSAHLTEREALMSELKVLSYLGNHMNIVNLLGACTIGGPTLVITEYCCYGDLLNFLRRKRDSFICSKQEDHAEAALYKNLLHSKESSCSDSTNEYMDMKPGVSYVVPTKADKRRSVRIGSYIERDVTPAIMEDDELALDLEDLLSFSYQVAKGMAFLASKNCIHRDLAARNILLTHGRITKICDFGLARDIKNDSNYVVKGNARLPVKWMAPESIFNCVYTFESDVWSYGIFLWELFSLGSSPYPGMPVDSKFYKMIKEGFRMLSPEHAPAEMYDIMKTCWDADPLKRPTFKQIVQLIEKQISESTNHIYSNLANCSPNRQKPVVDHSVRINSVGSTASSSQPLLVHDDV
row,Compound,IC50 [nM]
1,CSc1ccc(Nc2nccc(N(C)c3ccc4c(C)n(C)nc4c3)n2)cc1,71
2,Cc1cc(C)cc(Nc2nccc(N(C)c3ccc4c(C)n(C)nc4c3)n2)c1,40
3,Cc1c2ccc(N(C)c3ccnc(Nc4cccc(F)c4)n3)cc2nn1C,102
4,Cc1c2ccc(N(C)c3ccnc(Nc4cccc(Cl)c4)n3)cc2nn1C,80
5,Cc1cc(C)cc(Nc2nccc(N(C)c3ccc4cn(C)nc4c3)n2)c1,61
6,Cc1cccc(Nc2nccc(N(C)c3ccc4c(C)n(C)nc4c3)n2)c1,87
7,Cc1c2ccc(N(C)c3ccnc(Nc4ccc(OC(F)(F)F)cc4)n3)cc2nn1C,89
8,CN(c1ccc2cn(C)nc2c1)c1ccnc(Nc2ccc(OC(F)(F)F)cc2)n1,83

# Now from value to molecule:
row,IC50 [nM],Compound
1,77,COc1cccc(Nc2nccc(N(C)c3ccc4cn(C)nc4c3)n2)c1
2,96,CN(c1ccc2cn(C)nc2c1)c1ccnc(Nc2cccc(F)c2)n1
3,72,CN(c1ccc2cn(C)nc2c1)c1ccnc(Nc2cccc(Cl)c2)n1
4,98,Cc1c2ccc(N(C)c3ccnc(Nc4cccc(Br)c4)n3)cc2nn1C
5,72,COc1cccc(Nc2nccc(N(C)c3ccc4c(C)n(C)nc4c3)n2)c1
